Assay results taken from patent publication US20230210999A1, “TARGETED PROTEASE DEGRADATION (TED) PLATFORM” (EUBULUS BIOTHERAPEUTICS INC., priority 2020, published 2023).

Assays:
MV4;11 cells = experiment: Cell proliferation experiment (Alamar blue, 72 h), MV4;11; type: cell-based, human; settings: Homo sapiens, MV4-11, 72 h, MV4;11 cells, 72 h; read-out: Inhibitory activity IC50 of tested compounds on MV4;11 cells
How it was run: (§1)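 Viability measured by Alamar blue fluorescence after 72 h culture with compound (5-fold serial dilutions, two wells each) added to log-phase cells. IC50 derived from a Min/Max/Slope logistic equation.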

Daudi cells = experiment: Cell proliferation experiment, Daudi; type: cell-based, human; settings: Homo sapiens, Daudi, 72 h, Daudi cells, 72 h; read-out: Inhibitory activity IC50 of tested compounds on Daudi cells
How it was run: as §1

NCIH82 cells = experiment: Cell proliferation experiment, NCI-H82; type: cell-based, human; settings: Homo sapiens, NCI-H82, 72 h, NCIH82 cells, 72 h; read-out: Inhibitory activity IC50 of tested compounds on NCIH82 cells
How it was run: as §1

HT-29 cells = experiment: Cell proliferation experiment, HT-29; type: cell-based; settings: Homo sapiens; HT-29 cells, 72 h; read-out: Inhibitory activity IC50 of tested compounds on HT-29 cells
Protocol: (§2) Reagents: RPMI-1640 medium, McCoy's 5A medium, IMDM medium, MEM medium, L-15 medium, fetal bovine serum. Penicillin-Streptomycin double antibody, trypsin, etc., 2-mercaptoethanol, NEAA, pyruvate, etc.
(§3) The cells were cultured in conventional ways, and the cells should be passed at least 2 generations before plating. Cells at the logarithmic growth phase were collected, prepared into single cell suspensions and counted. The concentration of cells was adjusted to the desired concentration, and cells were inoculated into a 96-well cell culture plate at 100 μl per well. 100 μL of complete medium of the test compound were added to each well, set up 2 duplicate wells for each concentration, and diluted with a 5-fold gradient, and continued to culture for 72 h. All cells were subjected to IC50 test for corresponding samples. The experimental results are shown in Test Example 4.
(§4) The fluorescence intensity of each well was detected using the Alarm blue method, and IC50 was calculated.
(§5) IC50 was calculated according to the following formula:
(§6) Y=Max+(Min−Max)/[1+(X/IC50)×Slope]
(§7) wherein Min, Max and Slope represent the minimum, maximum and slope respectively.

U-87MG cells = experiment: Cell proliferation experiment, U-87MG; type: cell-based; settings: Homo sapiens; U-87MG cells, 72 h; read-out: Inhibitory activity IC50 of tested compounds on U-87MG cells
Protocol: as §2, §3, §4, §5, §6, §7

HUVEC cells = experiment: Cell proliferation experiment, HUVEC; type: cell-based; settings: Homo sapiens, 72 h, read-out: Inhibitory activity IC50 of tested compounds on HUVEC cells
Protocol: as §2, §3, §4, §5, §6, §7

Row | SMILES | IC50 (MV4;11 cells) | IC50 (Daudi cells) | IC50 (NCIH82 cells) | IC50 (HT-29 cells) | IC50 (U-87MG cells) | IC50 (HUVEC cells)
1 | CC[C@@H]1C(=O)N(C)c2cnc(Nc3ccc(C(=O)NCCCOCCOCCN(C)CCC#Cc4cccc5c4CN(C4CCC(=O)NC4=O)C5=O)cc3OC)nc2N1C1CCCC1 (stereo partly shown) [Compound 920] | ≤ 100 nM | ≤ 100 nM | ≤ 1000 nM | 300 to 1000 nM | ≤ 100 nM | ≤ 1000 nM
2 | CC[C@@H]1C(=O)N(C)c2cnc(Nc3ccc(C(=O)NCCCNCCCOCCC#Cc4cccc5c4CN(C4CCC(=O)NC4=O)C5=O)cc3OC)nc2N1C1CCCC1 (stereo partly shown) [Compound 921] | ≤ 100 nM | 100 to 1000 nM | > 1000 nM | > 1000 nM | 100 to 500 nM | ≤ 1000 nM
3 | CC[C@@H]1C(=O)N(C)c2cnc(Nc3ccc(C(=O)NC4CCN(CCCOCCN(C)CCCC#Cc5cccc6c5CN(C5CCC(=O)NC5=O)C6=O)CC4)cc3OC)nc2N1C1CCCC1 (stereo partly shown) [Compound 924] | ≤ 100 nM | ≤ 100 nM | ≤ 1000 nM | ≤ 300 nM | 100 to 500 nM | ≤ 1000 nM
4 | CC[C@@H]1C(=O)N(C)c2cnc(Nc3ccc(C(=O)NC4CCC(N5CCN(CCCC(=O)NC#Cc6cccc7c6CN(C6CCC(=O)NC6=O)C7=O)CC5)CC4)cc3OC)nc2N1C1CCCC1 (stereo partly shown) [Compound 926] | ≤ 100 nM | ≤ 100 nM | ≤ 1000 nM | 300 to 1000 nM | 100 to 500 nM | ≤ 1000 nM
5 | CC[C@@H]1C(=O)N(C)c2cnc(Nc3ccc(C(=O)NCCCOCCN(C)CCC#Cc4cccc5c4CN(C4CCC(=O)NC4=O)C5=O)cc3OC)nc2N1C1CCCC1 (stereo partly shown) [Compound 927] | ≤ 100 nM | ≤ 100 nM | ≤ 1000 nM | ≤ 300 nM | ≤ 100 nM | ≤ 1000 nM
6 | CC[C@@H]1C(=O)N(C)c2cnc(Nc3ccc(C(=O)NC4CCN(C5CN(CCC#Cc6cccc7c6CN(C6CCC(=O)NC6=O)C7=O)C5)CC4)cc3OC)nc2N1C1CCCC1 (stereo partly shown) [Compound 928] | ≤ 100 nM | ≤ 100 nM | ≤ 1000 nM | ≤ 300 nM | ≤ 100 nM | ≤ 1000 nM
7 | CC[C@@H]1C(=O)N(C)c2cnc(Nc3ccc(C(=O)NCCCOCCCOCCN(C)CCC#Cc4cccc5c4CN(C4CCC(=O)NC4=O)C5=O)cc3OC)nc2N1C1CCCC1 (stereo partly shown) [Compound 930] | ≤ 100 nM | ≤ 100 nM | ≤ 1000 nM | ≤ 300 nM | ≤ 100 nM | ≤ 1000 nM
8 | CC[C@@H]1C(=O)N(C)c2cnc(Nc3ccc(C(=O)NC4CN(CCCOCCCNCCC#Cc5cccc6c5CN(C5CCC(=O)NC5=O)C6=O)C4)cc3OC)nc2N1C1CCCC1 (stereo partly shown) [Compound 931] | ≤ 100 nM | 100 to 1000 nM | ≤ 1000 nM | > 1000 nM | 500 to 1000 nM | 

More lines, main results first:

Row | IC50 (MV4;11 cells) | IC50 (Daudi cells) | IC50 (NCIH82 cells) | IC50 (HT-29 cells) | IC50 (U-87MG cells) | SMILES | IC50 (HUVEC cells)
9 | ≤ 100 nM | ≤ 100 nM | ≤ 1000 nM | 300 to 1000 nM | 100 to 500 nM | CC[C@@H]1C(=O)N(C)c2cnc(Nc3ccc(C(=O)NC4CCN(CCCOCCNCCCC#Cc5cccc6c5CN(C5CCC(=O)NC5=O)C6=O)CC4)cc3OC)nc2N1C1CCCC1 (stereo partly shown) [Compound 918] | 
10 | ≤ 100 nM | ≤ 100 nM | ≤ 1000 nM | 300 to 1000 nM | 100 to 500 nM | CC[C@@H]1C(=O)N(C)c2cnc(Nc3ccc(C(=O)NC4CCN(CCCOCCCN(C)CCCC#Cc5cccc6c5CN(C5CCC(=O)NC5=O)C6=O)CC4)cc3OC)nc2N1C1CCCC1 (stereo partly shown) [Compound 919] | ≤ 1000 nM
11 | ≤ 100 nM | 100 to 1000 nM | ≤ 1000 nM | 300 to 1000 nM | 100 to 500 nM | CC[C@@H]1C(=O)N(C)c2cnc(Nc3ccc(C(=O)NC4CCN(CCCCNCCCC#Cc5cccc6c5CN(C5CCC(=O)NC5=O)C6=O)CC4)cc3OC)nc2N1C1CCCC1 (stereo partly shown) [Compound 922] | ≤ 1000 nM
12 | ≤ 100 nM | ≤ 100 nM | ≤ 1000 nM | ≤ 300 nM | 100 to 500 nM | CC[C@@H]1C(=O)N(C)c2cnc(Nc3ccc(C(=O)NC4CCN(CCCCN(C)CCCC#Cc5cccc6c5CN(C5CCC(=O)NC5=O)C6=O)CC4)cc3OC)nc2N1C1CCCC1 (stereo partly shown) [Compound 923] | ≤ 1000 nM
